The source of these data is ChEMBL document CHEMBL5252585, “Structure optimization and discovery of novel compound for the treatment of insertion mutations within exon 20 of EGFR and HER2” (Bioorg Med Chem, 2023).

Data set [1] in a line: Toxicity in BALB/c mouse harboring EGFR D770-N771 ins NPG mutant implanted with mouse BaF3 cells assessed as change in body weight at 10 to 20 mg/kg, po administered once daily for 13 to 14 days. The conditions noted are these: in vivo, dose lower 10 mg/kg, time lower 13 day, dose upper 20 mg/kg, time upper 14 day. In kind it is organism-based.
The nature of data set [2]: Tmax in Sprague-Dawley rat at 10 mg/kg, iv measured upto 8 hrs by LC-MS/MS analysis. Type of data set: ADME, organism-based. The conditions noted are these: in vivo.
Data set [3] deals with BaF3. As to the kind of experiment: Antitumor activity against mouse BaF3 cells implanted in BALB/c mouse harboring EGFR D770-N771 ins NPG mutant assessed as tumor growth inhibition at 20 mg/kg, po administered once daily for 13 to 14 days. In kind it is functional. The conditions noted are these: time 13-14 day, read-out: TGI.
Data set [4] concerns BaF3. The experiment in a line: Antiproliferative activity against mouse BAF3 cells harboring FL-EGFR A763-Y764 ins FQEA mutant after 72 hrs by celltiter-Glo luminescence assay. In kind it is functional, cell-based. To be noted: BaF3, 72 h.
Data set [5] deals with Tyrosine-protein kinase BTK (Homo sapiens) (UniProt Q06187). The experiment in a line: Inhibition of BTK (unknown origin) at 500 nM relative to control.
Sequence of Tyrosine-protein kinase BTK (Homo sapiens) (Q06187 whole entry): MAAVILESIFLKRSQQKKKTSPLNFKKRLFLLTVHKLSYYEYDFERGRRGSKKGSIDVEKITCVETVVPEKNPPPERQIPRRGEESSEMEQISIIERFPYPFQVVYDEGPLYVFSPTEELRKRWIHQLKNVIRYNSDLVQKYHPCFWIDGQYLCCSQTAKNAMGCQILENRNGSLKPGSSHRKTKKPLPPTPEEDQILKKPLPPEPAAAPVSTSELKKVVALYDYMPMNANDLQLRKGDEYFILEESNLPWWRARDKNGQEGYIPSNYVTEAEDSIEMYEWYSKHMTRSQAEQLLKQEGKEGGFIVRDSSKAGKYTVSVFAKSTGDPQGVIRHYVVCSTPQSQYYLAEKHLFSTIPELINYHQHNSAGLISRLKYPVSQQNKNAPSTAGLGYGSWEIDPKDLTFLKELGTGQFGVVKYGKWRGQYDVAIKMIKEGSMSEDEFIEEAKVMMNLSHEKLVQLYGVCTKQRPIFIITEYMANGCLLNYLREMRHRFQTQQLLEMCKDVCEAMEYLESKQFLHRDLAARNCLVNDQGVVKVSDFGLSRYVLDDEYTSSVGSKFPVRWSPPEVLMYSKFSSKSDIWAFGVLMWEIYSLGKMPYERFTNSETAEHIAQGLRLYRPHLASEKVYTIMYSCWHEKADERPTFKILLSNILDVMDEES
Data set [6] relates to BaF3. The experiment in a line: Inhibition of EGFR D770-N771 ins NPG mutant in mouse BaF3 cells assessed as reduction in EGFR phosphorylation incubated for 24 hrs by Western blot analysis. In kind it is cell-based. The conditions noted are these: dose 1-100 nM. A general note: A western blot detects proteins with antibodies after separation by electrophoresis.

A value given as a limit tells only on which side of the number the result lay.

For `C=CC(=O)N1CCC(Oc2cc3c(Nc4cccc(Cl)c4F)ncnc3cc2O[C@H]2CCOC2)CC1`, in data set [1], the Activity result was “Non-Toxic”. Also, in data set [2], the Tmax (in general, the time at which the peak concentration occurs) was 4.98 min. Also, in data set [3], the inhibition in vivo at 20 mg/kg is 83%. In addition, the IC50 – broadly, the concentration that inhibits the measured activity by half – in data set [4] came out at 0.29 nM. Besides, the figures for the inhibition in data set [5] and in data set [6] were above 20% and “Dose-Dependent Effect”, respectively.
